Experimental data as given in patent US5416081A, “Cephalosporin compounds” (Lucky Limited, priority 1992, dated 1995).
Converted amounts (≈) assume the structure as drawn. Like-named read-outs stand apart in the source and are kept apart here.

Assays:
Type in all cases: cell-based
[1] = tested on: S. aureus/6538pA; experiment: MIC against standard strain by two-fold agar dilution, S. aureus/6538pA; conditions: Staphylococcus aureus
Method: (§1) These MIC values were taken by employing a two-fold dilution method: that is, two-fold serial dilutions of each of the test compounds were made and dispersed in a Muller-Hinton agar medium; 2 μl of the standard test strain which had the 10^7 CFU(Colony Forming Unit) per ml was inoculated on the medium; and these were incubated at 37° C. for 20 hours.

[2] = tested on: S. aureus/giorigio; experiment: MIC against standard strain by two-fold agar dilution, S. aureus/giorigio; conditions: Staphylococcus aureus
Method: as §1

[3] = tested on: S. aureus/77; experiment: MIC against standard strain by two-fold agar dilution, S. aureus/77; conditions: Staphylococcus aureus
Method: as §1

[4] = tested on: E. coli/10536; experiment: MIC against standard strain by two-fold agar dilution, E. coli/10536; conditions: Escherichia coli
Method: as §1

[5] = tested on: E. coli/3190Y; experiment: MIC against standard strain by two-fold agar dilution, E. coli/3190Y; conditions: Escherichia coli
Method: as §1

[6] = tested on: E. coli TEM1/1193E; experiment: MIC against standard strain by two-fold agar dilution, E. coli TEM1/1193E; conditions: Escherichia coli, 20 h
Method: as §1

[7] = tested on: E. coli TEM5/3739E; experiment: MIC against standard strain by two-fold agar dilution, E. coli TEM5/3739E; conditions: Escherichia coli, 20 h
Method: as §1

[8] = tested on: E. coli TEM9/2639E; experiment: MIC against standard strain by two-fold agar dilution, E. coli TEM9/2639E; conditions: Escherichia coli, 20 h
Method: as §1

[9] = tested on: P. aeruginosa/1912E; experiment: MIC against standard strain by two-fold agar dilution, P. aeruginosa/1912E; conditions: Pseudomonas aeruginosa
Method: as §1

[10] = tested on: P. aeruginosa/10145; experiment: MIC against standard strain by two-fold agar dilution, P. aeruginosa/10145; conditions: Pseudomonas aeruginosa
Method: as §1

[11] = tested on: P. aeruginosa/6065Y; experiment: MIC against standard strain by two-fold agar dilution, P. aeruginosa/6065Y; conditions: Pseudomonas aeruginosa
Method: as §1

[12] = tested on: A. calcoaceticus /15473A; experiment: MIC against standard strain by two-fold agar dilution, A. calcoaceticus /15473A; conditions: Acinetobacter calcoaceticus
Method: as §1

[13] = tested on: E. cloacae/1194E; experiment: MIC against standard strain by two-fold agar dilution, E. cloacae/1194E; conditions: Enterobacter cloacae
Method: as §1

[14] = tested on: K. aerogenes/1776E; experiment: MIC against standard strain by two-fold agar dilution, K. aerogenes/1776E; conditions: Klebsiella aerogenes
Method: as §1

[15] = tested on: S. marcescens/1826E; experiment: MIC against standard strain by two-fold agar dilution, S. marcescens/1826E; conditions: Serratia marcescens
Method: as §1

[16] = tested on: S. typhimunium/14028A; experiment: MIC against standard strain by two-fold agar dilution, S. typhimunium/14028A
Method: as §1

[17] = S. aureus/6538pA, Muller-Hinton agar, 37° C., 20 hours, read-out: MIC
[18] = S. aureus/giorigio, Muller-Hinton agar, 37° C., 20 hours, read-out: MIC
[19] = S. aureus/77, Muller-Hinton agar, 37° C., 20 hours, read-out: MIC
[20] = E. coli/10536, Muller-Hinton agar, 37° C., 20 hours, read-out: MIC
[21] = E. coli/3190Y, Muller-Hinton agar, 37° C., 20 hours, read-out: MIC
[22] = P. aeruginosa/1912E, Muller-Hinton agar, 37° C., 20 hours, read-out: MIC
[23] = P. aeruginosa/10145, Muller-Hinton agar, 37° C., 20 hours, read-out: MIC
[24] = P. aeruginosa/6065Y, Muller-Hinton agar, 37° C., 20 hours, read-out: MIC
[25] = A. calcoaceticus /15473A, Muller-Hinton agar, 37° C., 20 hours, read-out: MIC
[26] = E. cloacae/1194E, Muller-Hinton agar, 37° C., 20 hours, read-out: MIC
[27] = K. aerogenes/1776E, Muller-Hinton agar, 37° C., 20 hours, read-out: MIC
[28] = S. marcescens/1826E, Muller-Hinton agar, 37° C., 20 hours, read-out: MIC
[29] = S. typhimunium/14028A, Muller-Hinton agar, 37° C., 20 hours, read-out: MIC

Row | Structure (SMILES) | MIC [1, 17] | MIC [2, 18] | MIC [3, 19] | MIC [4, 20] | MIC [5, 21] | MIC [6] | MIC [7] | MIC [8] | MIC [9, 22] | MIC [10, 23] | MIC [11, 24] | MIC [12, 25] | MIC [13, 26] | MIC [14, 27] | MIC [15, 28] | MIC [16, 29] | MIC ([1]; 20 h) | MIC ([4]; 20 h) | MIC ([5]; 20 h) | other results
1 | Nc1nc(/C(=N/OC2(C(=O)O)CCCC2)C(=O)NC2C(=O)N3C(C(=O)[O-])=C(CSc4nc(N)c5c([n+]4N)CCC5)CSC23)cs1 (centres unmarked) [Compound I-11, 7-[(Z)-2-(2-aminothiazol-4-yl)-2-(1-carboxycyclopent-1-oxyimino)acetamido]-3-(1,4-diamino-1,5,6,7-tetrahydro-cyclopentapyrimidinium-2-yl)thiomethyl-3-cephem-4-carboxylate] | 2 µg/mL (≈ 2.96 µM) | 1 µg/mL (≈ 1.48 µM) | 16 µg/mL (≈ 23.7 µM) | 0.016 µg/mL (≈ 0.0237 µM) | ≤ 0.008 µg/mL | 0.13 µg/mL (≈ 0.192 µM) | 0.25 µg/mL (≈ 0.37 µM) | 2 µg/mL (≈ 2.96 µM) | 0.5 µg/mL (≈ 0.74 µM) | 1 µg/mL (≈ 1.48 µM) | 8 µg/mL (≈ 11.8 µM) | 1 µg/mL (≈ 1.48 µM) | 4 µg/mL (≈ 5.92 µM) | 0.13 µg/mL (≈ 0.192 µM) | 0.25 µg/mL (≈ 0.37 µM) | 0.25 µg/mL (≈ 0.37 µM) |  |  |  | 
2 | C[n+]1c(SCC2=C(C(=O)[O-])N3C(=O)C(NC(=O)/C(=N\OC4(C(=O)O)CCCC4)c4csc(N)n4)C3SC2)nc(N)c2c1CCC2 (centres unmarked) [Compound I-12, 7-[(Z)-2-(2-aminothiazol-4-yl}-2-(1-carboxycyclopent-1-oxyimino)acetamido]-3-(4-amino-1-methyl-1,5,6,7-tetrahydro-cyclopenta-pyrimidinium-2-yl)thiomethyl-3-cephem-4-carboxylate] | 2 µg/mL (≈ 2.96 µM) | 2 µg/mL (≈ 2.96 µM) | 8 µg/mL (≈ 11.9 µM) | 0.016 µg/mL (≈ 0.0237 µM) | 0.063 µg/mL (≈ 0.0934 µM) | 0.13 µg/mL (≈ 0.193 µM) | 0.5 µg/mL (≈ 0.741 µM) | 4 µg/mL (≈ 5.93 µM) | 1 µg/mL (≈ 1.48 µM) | 2 µg/mL (≈ 2.96 µM) | 16 µg/mL (≈ 23.7 µM) | 2 µg/mL (≈ 2.96 µM) | 8 µg/mL (≈ 11.9 µM) | 0.13 µg/mL (≈ 0.193 µM) | 0.25 µg/mL (≈ 0.37 µM) | 0.25 µg/mL (≈ 0.37 µM) |  |  |  | 
3 | C[C@H](O/N=C(\C(=O)NC1C(=O)N2C(C(=O)[O-])=C(CSc3nc(N)c4c([n+]3N)CCC4)CSC12)c1csc(N)n1)C(=O)O (stereo partly drawn) [I-5(S), 7-[(Z)-2-(2-aminothiazol-4-yl)-2-((S)-1-carboxyeth-1-oxyimino)acetamido]-3-(1,4-diamino-1,5,6,7-tetrahydro-cyclopentapyrimidinium-2-yl)thiomethyl-3-cephem-4-carboxylate] |  | 2 µg/mL (≈ 3.15 µM) | 8 µg/mL (≈ 12.6 µM) |  |  | 0.031 µg/mL (≈ 0.0488 µM) | 2 µg/mL (≈ 3.15 µM) | 8 µg/mL (≈ 12.6 µM) | 1 µg/mL (≈ 1.57 µM) | 2 µg/mL (≈ 3.15 µM) | 8 µg/mL (≈ 12.6 µM) | 2 µg/mL (≈ 3.15 µM) | 8 µg/mL (≈ 12.6 µM) | 0.13 µg/mL (≈ 0.204 µM) | 0.25 µg/mL (≈ 0.393 µM) | 0.25 µg/mL (≈ 0.393 µM) | 4 µg/mL (≈ 6.29 µM) | 0.016 µg/mL (≈ 0.0252 µM) | ≤ 0.008 µg/mL | 
4 | C[C@H](O/N=C(\C(=O)NC1C(=O)N2C(C(=O)[O-])=C(CSc3nc(N)c4c([n+]3C)CCC4)CSC12)c1csc(N)n1)C(=O)O (stereo partly drawn) [I-6(S)] | 4 µg/mL (≈ 6.3 µM) | 2 µg/mL (≈ 3.15 µM) | 4 µg/mL (≈ 6.3 µM) | 0.016 µg/mL (≈ 0.0252 µM) | 0.063 µg/mL (≈ 0.0993 µM) | 0.13 µg/mL (≈ 0.205 µM) | 1 µg/mL (≈ 1.58 µM) | 4 µg/mL (≈ 6.3 µM) | 1 µg/mL (≈ 1.58 µM) | 2 µg/mL (≈ 3.15 µM) | 4 µg/mL (≈ 6.3 µM) | 4 µg/mL (≈ 6.3 µM) | 4 µg/mL (≈ 6.3 µM) | 0.13 µg/mL (≈ 0.205 µM) | 0.25 µg/mL (≈ 0.394 µM) | 0.25 µg/mL (≈ 0.394 µM) |  |  |  | 
5 | CC(C)(O/N=C(\C(=O)N[C@@H]1C(=O)N2C(C(=O)[O-])=C(C[n+]3ccccc3)CS[C@H]12)c1csc(N)n1)C(=O)O [ceftazidime, Ceftazidime, reference compound] |  |  |  |  |  | 0.28 µg/mL (≈ 0.512 µM) | 8 µg/mL (≈ 14.6 µM) | > 128 µg/mL |  |  |  |  |  |  |  |  | 16 µg/mL (≈ 29.3 µM) | 0.063 µg/mL (≈ 0.115 µM) | 0.031 µg/mL (≈ 0.0567 µM) | MIC ([2]; 20 h): 4 µg/mL (≈ 7.32 µM); MIC ([3]; 20 h): 32 µg/mL (≈ 58.5 µM); MIC ([9]; 20 h): 1 µg/mL (≈ 1.83 µM); MIC ([10]; 20 h): 2 µg/mL (≈ 3.66 µM); MIC ([11]; 20 h): 32 µg/mL (≈ 58.5 µM); MIC ([12]; 20 h): 2 µg/mL (≈ 3.66 µM); MIC ([13]; 20 h): 64 µg/mL (≈ 117 µM); MIC ([14]; 20 h): 0.25 µg/mL (≈ 0.457 µM); MIC ([15]; 20 h): 0.25 µg/mL (≈ 0.457 µM); MIC ([16]; 20 h): 0.25 µg/mL (≈ 0.457 µM)
